Assay results taken from paper PMC12040169 (PLOS Biology, 2025).

Experiment: in vitro
Conditions: human, hela cells, % viability

Row | SMILES | viability at 28.5 h, 10 µM [%]
1 | O=C1Nc2ccc(-c3cccc(C(F)(F)F)c3)cc2C(=O)N2CCN(C(=O)C3CC3)C[C@H]12 [CBK289585] | 79.4
2 | CC(C)Nc1nccnc1Sc1cccc2ccccc12 [CBK089493] | 100
3 | O=C(CSCc1nc2ccccc2[nH]1)Nc1cccc(C(F)(F)F)c1 [CBK268474] | 101
4 | CCC(=O)N1CCCC1c1nc(C)c2c(n1)N(CCc1ccccc1OC)CCC2 (stereo not drawn) [CBK286246] | 95.4
5 | CCC(C)(C)c1ccc(S(=O)(=O)NCC2CC2)cc1 [CBK044994] | 93
6 | CCn1nc(C(=O)Nc2ccccc2-c2ccc(OC)cc2)c2ccccc2c1=O [CBK285864] | 94.1
7 | Cc1ccc2cc(C)c3nn(CC(=O)NC4CC4)c(=O)n3c2c1C [CBK283822] | 83.8
8 | O=C(Cn1ncn2c(cc3ccsc32)c1=O)NCc1cccs1 [CBK284197] | 90.3
9 | COc1ccc(F)c(CN(CC2CCNCC2)C(=O)Nc2ccccc2C(F)(F)F)c1 [CBK049805] | 96.9
10 | O=C(Nc1cc(Oc2ccc(Cl)cc2)cc([N+](=O)[O-])c1)c1cnn2c(C(F)F)cc(C3CC3)nc12 [CBK268925] | 105
11 | CC(=O)NCc1cccc(-c2cc(OCC3COc4ccccc4O3)cnc2C)c1 (stereo not drawn) [CBK161723A] | 112
12 | CC(C)(C)C(=O)Nc1ccc(C(=O)Nc2cccc(C(=O)O)c2)cc1 [CBK261329] | 94.8
13 | COc1cc2c(cc1NC(=O)c1cccc([N+](=O)[O-])c1)oc1ccccc12 [CBK262958] | 94.4
14 | O=C(O)/C=C\C(=O)Nc1ccc(Cl)c(NC(=O)Cc2ccccc2)c1 [CBK263955] | 93.7
15 | Cc1ccc(Cn2cnc3c(cnn3-c3ccc(C)c(C)c3)c2=O)cc1 [CBK287540] | 108
16 | CC(=O)N1CCC2(CCCC[C@H]3CNCC[C@@H]3NC(=O)CNC2=O)CC1 [CBK292167] | 91.7
17 | Cc1nc(C)n(CC(=O)N[C@H]2C3CCCCC3[C@@H]2c2ccccc2)n1 (stereo partly drawn) [CBK285128] | 94.7
18 | CC(O)CN(Cc1ccc(-n2cnc3ccccc32)cc1)Cc1ccc2c(c1)OCO2 (stereo not drawn) [CBK286475] | 101
19 | O=C(CSc1nc(O)c2c(-c3ccccc3)csc2n1)NCCc1ccccc1 [CBK268077] | 97.2
20 | COc1cc(CNc2cc(-c3ccc4c(c3)OCO4)ncn2)cc(OC)c1OC [CBK037822] | 98.9
21 | Cc1cccc(NC(=O)c2cc(NC(=O)C3CCCCC3C(=O)O)ccc2N2CCCCC2)c1 (stereo not drawn) [CBK267332] | 97.3
22 | COc1ccc(C(=O)N2CCC3(CCCN(C(=O)c4cscn4)C3)C2)cc1OC (stereo not drawn) [CBK131659] | 92
23 | COc1ccc(NC(=O)CSc2nc3c(N)ncnc3[nH]2)cc1 [CBK218441] | 91.4

Row | SMILES | viability at 28.5 h, 10 µM [%]
24 | O=C(CSCc1c(Cl)cccc1Cl)Nc1ccc(-c2nnc(-c3ccccc3)o2)cc1 [CBK267817] | 99.7
25 | CC(=O)Nc1ccc(NC(=O)CC2(CC(=O)O)CCCCC2)cc1 [CBK299816] | 102
26 | CCc1onc(-c2ccccc2)c1C(=O)NCCO [CBK160434] | 89.8
27 | CN(C)CCCn1c(=O)n(CC(=O)O)c(=O)c2c3c(sc21)CCC3 [CBK286783] | 110
28 | Cc1ccc(Nc2nc(O)ns2)cc1 [CBK026011] | 81
29 | CCOC(=O)CN/C(=N/O)c1c(Cl)cccc1Cl [CBK022374] | 99.6
30 | Fc1ccc(-c2cn(-c3ccc(OCc4ccccc4)c(F)c3)nn2)cc1 [CBK113121] | 99
31 | COc1ccc(NC(=O)c2cnc3sc(C)cn3c2=O)c(OC)c1 [CBK287712] | 87
32 | Nc1ccc2ccc(Cl)nc2n1 [CBK039198] | 113
33 | OCC1COCCN(c2ncnc3c2CCC3)C1 (stereo not drawn) [CBK304373] | 103
34 | O=C(CN1CCC(c2ccc(F)cc2)CC1)Nc1nccs1 [CBK283566] | 90
35 | O=C(CSCc1ccccc1)Nc1ccc(O)cc1C(=O)O [CBK126817] | 103
36 | CCCCOc1ccc(OC(=O)C2CCN(CCCC)CC2)cc1 [CBK122680] | 112
37 | COCc1nnc(NS(=O)(=O)c2ccc(C)cc2)s1 [CBK045523] | 86.7
38 | Cc1ccc(C)c2[nH]c(=O)c(CN(CCN3CCOCC3)Cc3nnnn3Cc3ccccc3)cc12 [CBK108063] | 93.1
39 | CCN1CCN(Cc2c(C3CCCC3)[nH]c3ncccc23)CC1 [CBK285386] | 97
40 | O=C(O)CCc1ccc(-c2ccc(Cl)cc2)[nH]1 [CBK264781] | 100
41 | Cn1c(=O)c2c(nc(NCCN)n2C)n(C)c1=O [CBK268680] | 107
42 | Cn1c(SCC(=O)Nc2cc(C(C)(C)C)no2)nnc1-c1ccc(C(C)(C)C)cc1 [CBK297133] | 89.6
43 | OCCCNc1nccnc1-c1ccco1 [CBK037346] | 99.2
44 | CS(=O)(=O)Nc1ccc(CC#N)cc1 [CBK038145] | 114
45 | c1ccc(CNC2(Cc3cc(-c4ccccn4)on3)COC2)cc1 [CBK289643] | 87.9
46 | Cc1cc(C(=O)N2CCN(C(=O)c3cn(Cc4ccc(S(C)(=O)=O)cc4)nn3)CC2)n(C)n1 [CBK160824T] | 110

Row | SMILES | viability at 28.5 h, 10 µM [%]
47 | CSc1cccc(NC(=O)c2sc3nc(C)cc(C)c3c2N)c1 [CBK115349] | 94.7
48 | CCN(Cc1ccco1)C(=O)NC1CCCc2c1cnn2CCO (stereo not drawn) [CBK305767] | 101
49 | COc1cc(C(=O)NCc2c(-c3ccccc3)noc2C)cc(OC)c1OC [CBK144097] | 93.9
50 | S=C(Nc1ccc(Nc2ccccc2)cc1)N1CCN(C/C=C/c2ccccc2)CC1 [CBK266149] | 102
51 | O=C(O)CSc1nnc(-c2ccc(F)cc2)o1 [CBK068115] | 104
52 | Cc1cc(NC(=O)C(C)SCc2cccc(C(F)(F)F)c2)no1 (stereo not drawn) [CBK306233] | 95.5
53 | O=C(NC1CCCCC1)N[C@H]1CO[C@H]2[C@@H]1OC[C@@H]2n1cc(CC2CCCCC2)nn1 [CBK289510] | 75.2
54 | FC(F)(F)Oc1ccc(-c2cncc(N3CCN(c4ccncc4)CC3)n2)cc1 [CBK059230C] | 88.9
55 | CCOc1ccc(C(=O)NC(=S)Nc2sc(C)c(C)c2C#N)cc1Cl [CBK268900] | 91.8
56 | COc1cccc(C(=O)NCC(C)(C)SCc2ccc(F)cc2)c1 [CBK022322] | 111
57 | O=C(O)COc1ccc(NC(=O)Cc2ccc([N+](=O)[O-])cc2)cc1 [CBK268573] | 104
58 | Cc1ccn2c(F)c(C(=O)N3CCCCC3CN3CCOCC3)nc2c1 (stereo not drawn) [CBK307028] | 82
59 | C=CCC1(CC=C)CCN1C(=O)c1sc2ncn(C)c(=O)c2c1C [CBK282637] | 84.7
60 | CCOC(=O)C1CCN(C(=O)c2c(-c3ccccc3)noc2C)CC1 [CBK158704] | 86.3
61 | CCOc1nc(Nc2nc(-c3ccccc3)cs2)nc(OCC)n1 [CBK262442] | 98.1
62 | COc1cccc(CN2CCC(Cc3ccccc3)CC2)c1 [CBK126436] | 103
63 | Clc1ccccc1-c1nsc(Nc2ccccc2)n1 [CBK016152] | 96.2
64 | Cc1nnnn1-c1cc(NC(=O)NCCCn2ccnc2)ccc1F [CBK305349] | 92.1
65 | Cc1cc(Cl)ccc1CNC(=O)C1(c2ccccc2)CCCC1 [CBK149519] | 88.6
66 | c1ccc(Sc2cccc3ccccc23)nc1 [CBK085856] | 91.8
67 | Cc1cc(C)c2c(O)nc(SCC(=O)c3ccccc3)nc2n1 [CBK264336] | 100
68 | COCC1(C(=O)N2CC(=O)N(c3ccc(C)cc3)CC2C)CCC1 (stereo not drawn) [CBK307606] | 89.1
69 | CCn1ncnc1CN1CCOc2ccc(CO)cc2C1 [CBK307245] | 80.7

Row | SMILES | viability at 28.5 h, 10 µM [%]
70 | COc1ccc(S(=O)(=O)NCc2ccccn2)cc1NC(C)=O [CBK269554] | 103
71 | COc1ccc2c(c1)CC(=O)NC21CCN(C(=O)N[C@@H](C)c2ccccc2)CC1 [CBK047325] | 92.4
72 | O=C(O)CCNC(=O)c1ccc(NS(=O)(=O)c2ccc(C3CCCCC3)cc2)cc1 [CBK296991] | 96.1
73 | C=CCn1c2ccccc2c2nnc(SCc3ccc([N+](=O)[O-])cc3)nc21 [CBK265630] | 92.5
74 | CC1(C)Cc2c(sc(NC(=O)C3CC(Cl)=CCC3C(=O)O)c2C#N)CO1 (stereo not drawn) [CBK265002] | 97.6
75 | CCN(C(=O)C(C)N(C)Cc1c(C)nn(C2CCS(=O)(=O)C2)c1C)c1cccc2ccccc12 (stereo not drawn) [CBK295206] | 108
76 | CC(C)c1ccc(N2C(=O)SC(c3ccccc3)C2=O)cc1 (stereo not drawn) [CBK113687] | 91.1
77 | Cc1noc(C)c1S(=O)(=O)n1c(=O)n(Cc2ccc(S(C)(=O)=O)cc2)c2ccccc21 [CBK106536] | 93.4
78 | COc1ccc(Cl)c(Cn2c(NCc3ccccn3)nc3c2c(=O)n(C)c(=O)n3C)c1 [CBK268965] | 97.6
79 | O=C(NCc1ccccn1)c1cnn(-c2ccc(Cl)cc2)c1C(F)(F)F [CBK116637T] | 101
80 | CC1(CNC(=O)c2cc(-c3cccc(F)c3)no2)COC1 [CBK281751] | 87.7
81 | O=c1c(Cl)nc(Cl)c(C2CCCCC2)n1Cc1ccccc1 [CBK012671] | 87.6
82 | CCn1c2ccccc2c2cc(CN(C)Cc3ccccc3)ccc21 [CBK261901] | 94.1
83 | CCOc1ccc(Cl)cc1CCNC(=O)NC(C)c1nnnn1C (stereo not drawn) [CBK305923] | 89.2
84 | COCC(=O)N[C@H]1C[C@H]2C(=O)Nc3ccc(-c4ccsc4)cc3C(=O)N2C1 [CBK289360] | 96.6
85 | COC(=O)CN1CCCC[C@H]2CN(C(=O)Cc3ccsc3)C[C@H]21 [CBK285509] | 111
86 | O=C(NCC(O)c1ccccc1)Nc1ccccc1 (stereo not drawn) [CBK057227] | 95.2
87 | Cc1ccsc1CN(Cc1nccn1C)CC(C)O (stereo not drawn) [CBK282976] | 92.3
88 | CC(C)(C)C(Cn1cccn1)NC(=O)CCC(=O)O (stereo not drawn) [CBK286897] | 81.3
89 | Nc1cccnc1OCCN1CCN(CC(=O)N2CCCCc3ccccc32)CC1 [CBK007764] | 95.1
90 | Cc1nc(-c2cc(Cl)c(Cl)s2)cs1 [CBK009801] | 84.2
